Source: ChEMBL document CHEMBL4261645, “Isolation, leishmanicidal evaluation and molecular docking simulations of piperidine alkaloids from Senna spectabilis” (Bioorg Med Chem, 2018)
Values after ≈ are worked out from the molar mass of the structure shown.

Columns and labels:
Leishmania amazonensis = test: Leishmanicidal activity against Leishmania amazonensis PH8 promastigotes after 48 hrs by spectrophotometric analysis; assay type: functional, organism-based; conditions: PH8, 48 h
[1] = Cytotoxicity against African green monkey Vero cells after 48 hrs by resazurin dye-based spectrophotometric analysis; assay type: cell-based; conditions: chlorocebus sabaeus
Leishmania major = test: Leishmanicidal activity against Leishmania major MHOM/SU/1973/5-ASKH promastigotes after 48 hrs by cell counting method; assay type: functional, organism-based
[2] = Log10 selectivity index, ratio of CC50 for African green monkey Vero cells to IC50 for Leishmania amazonensis PH8 promastigotes; conditions: Vero cells versus Leishmania amazonensis PH8 promastigotes

Row | Structure (SMILES) | IC50 (Leishmania amazonensis) [µg/mL] | CC50 at 48 h [1] [µg/mL] | IC50 (Leishmania major) [µg/mL] | log10 selectivity index [2]
1 | CC(=O)CCCCCCCCCCCC[C@H]1CC[C@@H](O)[C@@H](C)N1 | 15.8 (≈ 48.6 µM) | 66.7 (≈ 205 µM) | 24.9 (≈ 76.5 µM) | 0.62
2 | CC(=O)CCCCCCCCCCCC[C@H]1CC[C@@H](OC(C)=O)[C@@H](C)N1 | 25.9 to 26.3 (≈ 70.6 to 71.6 µM) | 255 to 274 (≈ 694 to 744 µM) | – | 0.99 to 1.02
3 | CC(=O)CCCCCCCCCC[C@H]1CC[C@@H](OC(C)=O)[C@@H](C)N1 | 30.2 to 30.7 (≈ 89.1 to 90.5 µM) | 357 to 361 (≈ 1050 to 1060 µM) | – | 1.06 to 1.07
4 | C[C@@H]1[C@H](O)[C@@H](C)/C=C/C=C/C=C/C=C/C=C/C=C/C=C/[C@H](O[C@@H]2O[C@H](C)[C@@H](O)[C@H](N)[C@@H]2O)C[C@@H]2O[C@](O)(C[C@@H](O)C[C@@H](O)[C@H](O)CC[C@@H](O)C[C@@H](O)CC(=O)O[C@H]1C)C[C@H](O)[C@H]2C(=O)O [AMPHOTERICIN B] | 0.29 (≈ 0.314 µM) | – | – | –
5 | CC(=O)CCCCCCCCCC[C@H]1CC[C@@H](O)[C@@H](C)N1 [CASSINE] | 25.2 (≈ 84.6 µM) | 249 (≈ 838 µM) | 1.6 (≈ 5.38 µM) | 0.99
